Source: ChEMBL document CHEMBL5316284, “Structural Determinants of Indole-2-carboxamides: Identification of Lead Acetamides with Pan Antimycobacterial Activity” (J Med Chem, 2023)
Values after ≈ are worked out from the molar mass of the structure shown.

Experiments:
[1] = system: Mycobacterium tuberculosis; assay: Antimycobacterial activity against Mycobacterium tuberculosis H37Rv mc2 6206 assessed as inhibition of bacterial growth measured after 7 days by visual analysis; type: functional; conditions: H37Rv mc2 6206, 168 h, time 7 day
[2] = system: Mycobacteroides abscessus; assay: Antimycobacterial activity against Mycobacterium abscessus […] assessed as inhibition of bacterial growth measured after 5 days by visual analysis; type: functional; conditions: 120 h, time 5 day
[3] = Kinetic solubility of compound at pH 7.4 incubated for 6 hrs by LC-MS/MS analysis; type: physicochemical; conditions: buffer, read-out: Kinetic_solubility
[4] = Metabolic stability in human liver S9 fraction assessed as parent compound remaining at 5 ug/ml after 90 mins in presence of NADPH by LC/MS analysis; type: ADME, subcellular; conditions: s9, 1.5 h, dose 5 µg/ml
[5] = Selectivity index, ratio of IC50 for Cytotoxicity against human WI26VA4 cells to MIC for antimycobacterial activity against Mycobacterium tuberculosis H37Rv mc2 6206; type: toxicity, cell-based; conditions: read-out: Selectivity Index
[6] = Plasma protein binding in human at 10 ug/ml incubated for 4 hrs under shaking condition by LC/MS/MS analysis; type: ADME, cell-free; conditions: at 10 µg/mL, read-out: PPB (converted)
[7] = Selectivity index, ratio of IC50 for Cytotoxicity against human WI26VA4 cells to MIC for antimycobacterial activity against Mycobacterium abscessus […]; type: toxicity, cell-based; conditions: read-out: Selectivity Index
[8] = Cytotoxicity against human WI26VA4 cells assessed as inhibition of cell growth measured after 72 hrs by MTT assay; type: toxicity, cell-based
[9] = Permeability of the compound by PAMPA method; type: ADME
[10] = Metabolic stability in mouse liver S9 fraction assessed as parent compound remaining at 5 ug/ml after 90 mins in presence of NADPH by LC/MS analysis; type: ADME, subcellular; conditions: s9, 1.5 h, dose 5 µg/ml

SMILES | MIC [1] [µg/mL] | MIC [2] [µg/mL] | solubility kinetic at 6 h [3] [µg/mL] | t1/2 [4] [h] | selectivity ratio [5] | fraction unbound at 4 h, 10 ug/ml [6] | selectivity ratio [7] | IC50 [8] [µg/mL] | permeability [9] | t1/2 [10] [h]
C[C@H]1CC[C@H](NC(=O)CNc2ccc(Cl)cc2)CC1 | 64 (≈ 228 µM) | > 64 | – | – | – | – | – | – | – | –
O=C(CNc1cccc(Br)c1)NC12CC3CC(CC(C3)C1)C2 | 32 (≈ 88.1 µM) | 1 (≈ 2.75 µM) | 22.2 (≈ 61.1 µM) | 0.5 | > 20 | 0.068 | > 20 | > 20 | 1.02 10^-6 cm/s | –
O=C(CNc1ccccc1OC(F)(F)F)NC12CC3CC(CC(C3)C1)C2 | 1 (≈ 2.71 µM) | > 64 | – | – | – | – | – | – | – | –
C[C@@H]1[C@H]2C[C@@H](C[C@H]1NC(=O)CNc1ccccc1)C2(C)C | 64 (≈ 223 µM) | > 64 | – | – | – | – | – | – | – | –
O=C(CNc1cccc(Cl)c1)NC12CC3CC(CC(C3)C1)C2 | 1 (≈ 3.14 µM) | 1 (≈ 3.14 µM) | 30.3 (≈ 95 µM) | 5.6 | > 20 | 0.002 | > 20 | > 20 | 0.32 10^-6 cm/s | 1.7
Cc1ccc(NCC(=O)NC2CCCCCCC2)cc1 | 32 (≈ 117 µM) | > 64 | – | – | – | – | – | – | – | –
C[C@@H]1[C@H]2C[C@@H](C[C@H]1NC(=O)CNc1ccc(Br)cc1)C2(C)C | 16 (≈ 43.8 µM) | 4 (≈ 10.9 µM) | – | – | – | – | – | – | – | –
O=C(CNc1ccc(Br)cc1)NC12CC3CC(CC(C3)C1)C2 | 8 (≈ 22 µM) | 2 (≈ 5.51 µM) | 1.3 (≈ 3.58 µM) | 2.5 | > 2.5 | 0.004 | > 10 | > 20 | 0.28 10^-6 cm/s | 4
O=C(CNc1ccc(Cl)cc1)NC1C2CC3CC(C2)CC1C3 (stereo unspecified) | 64 (≈ 201 µM) | > 64 | – | – | – | – | – | – | – | –
C[C@@H]1[C@H]2C[C@@H](C[C@H]1NC(=O)CNc1ccc(Cl)cc1)C2(C)C | 16 (≈ 49.9 µM) | 4 (≈ 12.5 µM) | – | – | – | – | – | – | – | –
COc1ccc(NCC(=O)NC2C3CC4CC(C3)CC2C4)cc1 (stereo unspecified) | 32 (≈ 102 µM) | 32 (≈ 102 µM) | – | – | – | – | – | – | – | –
O=C(CNc1ccc(OC(F)(F)F)cc1)NC12CC3CC(CC(C3)C1)C2 | 16 (≈ 43.4 µM) | 2 (≈ 5.43 µM) | 6.79 (≈ 18.4 µM) | 3.1 | > 1.2 | 0.002 | > 10 | > 20 | 0.47 10^-6 cm/s | 4.1
Cc1ccc(NCC(=O)N[C@@H]2C[C@@H]3C[C@H]([C@H]2C)C3(C)C)cc1 | 16 (≈ 53.3 µM) | 8 (≈ 26.6 µM) | – | – | – | – | – | – | – | –
COc1ccc(NCC(=O)N[C@@H]2C[C@@H]3C[C@H]([C@H]2C)C3(C)C)cc1 | 64 (≈ 202 µM) | 32 (≈ 101 µM) | – | – | – | – | – | – | – | –
C[C@@H]1[C@H]2C[C@@H](C[C@H]1NC(=O)CNc1ccc(C(F)(F)F)cc1)C2(C)C | 16 (≈ 45.1 µM) | 32 (≈ 90.3 µM) | – | – | – | – | – | – | – | –
O=C(CNc1ccc(C(F)(F)F)cc1)NC1CCCCCCC1 | 32 (≈ 97.4 µM) | 64 (≈ 195 µM) | – | – | – | – | – | – | – | –
O=C(CNc1ccccc1)NC1C2CC3CC(C2)CC1C3 (stereo unspecified) | 16 (≈ 56.3 µM) | > 64 | – | – | – | – | – | – | – | –
O=C(CNc1ccccc1)NC1CCCCCC1 | 64 (≈ 260 µM) | > 64 | – | – | – | – | – | – | – | –
COc1ccc(NCC(=O)NC23CC4CC(CC(C4)C2)C3)cc1 | 32 (≈ 102 µM) | 32 (≈ 102 µM) | – | – | – | – | – | – | – | –
O=C(CNc1ccc(Br)cc1)NC1C2CC3CC(C2)CC1C3 (stereo unspecified) | 4 (≈ 11 µM) | 4 (≈ 11 µM) | – | – | – | – | – | – | – | –
